Reference: patent US12480163B2, “Compositions and methods for identification assessment, prevention, and treatment of Ewing sarcoma using TP53 dependency biomarkers and modulators” (Dana-Farber Cancer Institute, Inc., priority 2018, dated 2025)
Entries after “also recorded” stand apart in the source; their conditions may differ.

How the values were obtained:
[1] = tested on: TP53 wild-type Ewing sarcoma cell lines; assay: Annexin V staining, flow cytometry (cell death); type: cell-based; conditions: TC32 and CHLA258; 2 d ATSP-7041 (2 μM, 4 μM) or P5091 (6.5 μM, 8 μM), 3 d GSK2830371 (15 μM)
Protocol: Cell death was measured using flow cytometric analysis of Annexin V staining according to the manufacturer's instructions (eBioscience). Data analysis was completed using Flowjo 7.6 software (Treestar).

[2] = tested on: TP53 wild-type Ewing sarcoma cell lines; assay: CellTiter-Glo cell viability assay, TP53 wild-type Ewing sarcoma cell lines; type: cell-based; conditions: treated for 3 d
Protocol: (§1) Cell viability was assessed using the CellTiter-Glo® Luminescent Cell Viability Assay (Promega). Viability assays were performed after Ewing sarcoma cell lines were infected with sgRNAs targeting TP53, MDM2, MDM4, PPM1D, or USP7 or treated with ATSP-7041, ATSP-7342, GSK2830371, P5091, XL-188, or vehicle control.

[3] = target: T1, Wip1 (Homo sapiens, UniProt O15297); assay: Western immunoblotting of Wip1 and pSer15-p53; type: cell-based; conditions: Western blot
T1 construct: Whole-cell lysates were extracted in cell lysis buffer (Cell Signaling); endogenous in cells; host or cells: TP53 wild-type Ewing sarcoma cell lines
T1 sequence (O15297 1-605): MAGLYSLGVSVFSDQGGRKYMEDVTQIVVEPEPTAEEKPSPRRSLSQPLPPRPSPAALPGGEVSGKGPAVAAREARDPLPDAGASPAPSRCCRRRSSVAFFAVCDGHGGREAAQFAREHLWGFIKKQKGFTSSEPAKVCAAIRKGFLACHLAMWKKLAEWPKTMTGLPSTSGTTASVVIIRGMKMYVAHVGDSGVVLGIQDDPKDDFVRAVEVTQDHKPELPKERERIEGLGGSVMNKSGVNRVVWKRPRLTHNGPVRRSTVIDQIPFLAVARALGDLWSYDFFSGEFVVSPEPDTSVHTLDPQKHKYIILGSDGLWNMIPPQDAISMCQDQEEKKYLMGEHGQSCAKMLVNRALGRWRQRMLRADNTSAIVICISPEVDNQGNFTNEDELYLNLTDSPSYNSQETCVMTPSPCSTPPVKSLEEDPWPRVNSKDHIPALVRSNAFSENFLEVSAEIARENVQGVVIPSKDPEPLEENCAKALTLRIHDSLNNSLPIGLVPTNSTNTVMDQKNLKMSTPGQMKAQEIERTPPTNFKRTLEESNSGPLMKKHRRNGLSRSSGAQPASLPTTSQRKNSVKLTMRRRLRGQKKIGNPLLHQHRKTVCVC
Protocol: (§2) Whole-cell lysates were extracted in cell lysis buffer (Cell Signaling) supplemented with EDTA-free protease inhibitors and PhosSTOP™ phosphatase inhibitors (Roche). Western immunoblotting was performed using standard techniques. Primary antibodies used included anti-MDM2 (ab178938; Abcam), anti-MDM2 (86934; Cell Signaling), anti-MDM4 (A300-287A; Bethyl Laboratories), anti-p53 (2527S; Cell Signaling), anti-p21 (2946S; Cell Signaling), anti-Vinculin (18058; Abcam), anti-Wip1 (A300-664A; Bethyl Laboratories), anti-pSer15-p53 (9284; Cell Signaling), anti-USP7 (A300-033A; Bethyl Laboratories), and anti-Tubulin (cp06; CalBiochem).

[4] = tested on: TP53 knockout cells; assay: CellTiter-Glo cell viability assay, TP53 knockout cells; type: cell-based; conditions: TP53 knockout cells vs control cells, treated for 3 d
Protocol: Lentivirus was produced by transfecting HEK-293T cells with the pLentiV2 vector (Addgene plasmid 52961) and the packaging plasmids pCMV8.9 and pCMV-VSVG according to the FuGENER 6 (Roche) protocol. For lentiviral transduction, Ewing sarcoma cells were incubated with 2 ml of virus and 8 μg/ml of polybrene (Sigma-Aldrich). Cells were selected in puromycin (Sigma-Aldrich) 48 h after infection for single knockout experiments. For dual knockout experiments, PPM1D, USP7, and MDM4 sgRNA sequences were cloned into a LentiV2 vector with a blasticidin selection marker (Addgene plasmid 83480).
d. sgRNA Sequences sgRNAs were designed using the Broad Institute's sgRNA designer tool. The following sequences were used as control or to target the respective genes: control sgRNA, 5′-[…]-3′ (SEQ ID NO: 125); sgMDM2 2: 5′-[…]-3′ (SEQ ID NO: 126); sgMDM2 5: 5′-[…]-3′ (SEQ ID NO: 127); sgMDM4 4: 5′-[…]-3′ (SEQ ID NO: 128); sgMDM4 6: 5′-[…]-3′ (SEQ ID NO: 129); sgUSP7 1: 5′-[…]-3′ (SEQ ID NO: 130); sgUSP7 2: 5′-ACCATACCCAAATTATTC CG-3′ (SEQ ID NO: 131); sgPPMID 1: 5′-[…]-3′ (SEQ ID NO: 132); sgPPMID 2: 5′-[…]-3′ (SEQ ID NO: 133); sgTP53 1: 5′-[…]-3′ (SEQ ID NO: 134); sgTP53 2: 5′-[…]-3′ (SEQ ID NO: 135); sgTP53 4: 5′-[…]-3′ (SEQ ID NO: 136); and sgTP53 5: 5′-[…]-3′ (SEQ ID NO: 137). e. Protein Extraction and Immunoblotting
as §1

[5] = tested on: MDM2, p53, and p21 protein levels; assay: Western immunoblotting of MDM2, p53, p21 in TP53 wild-type Ewing sarcoma cell lines; type: cell-based; conditions: for MDM2 protein levels, combination of ATSP-7041 and P5091 compared with ATSP-7041 alone: TC32 and TC138 cells, 2 d
Protocol: as §2

[6] = tested on: MDM2 protein levels; assay: Western immunoblotting of MDM2 in TP53 mutated cell lines A673 and EWS502; type: cell-based; conditions: TP53 mutated cell lines A673 and EWS502, 1 μM; 4 h
Protocol: as §2

[7] = target: T2, p53-MDM4 complex (Homo sapiens, UniProt O15151); assay: MDM4 immunoprecipitation from TC32 cell lysates, p53 and MDM4 Western blot; type: binding; conditions: TC32 lysates after RG7388 pre-treatment, 20 μM compound
T2 construct: endogenous in cells; host or cells: TC32 Ewing sarcoma cells (TP53 wild-type), lysed in NP-40 buffer
T2 sequence (O15151 1-490): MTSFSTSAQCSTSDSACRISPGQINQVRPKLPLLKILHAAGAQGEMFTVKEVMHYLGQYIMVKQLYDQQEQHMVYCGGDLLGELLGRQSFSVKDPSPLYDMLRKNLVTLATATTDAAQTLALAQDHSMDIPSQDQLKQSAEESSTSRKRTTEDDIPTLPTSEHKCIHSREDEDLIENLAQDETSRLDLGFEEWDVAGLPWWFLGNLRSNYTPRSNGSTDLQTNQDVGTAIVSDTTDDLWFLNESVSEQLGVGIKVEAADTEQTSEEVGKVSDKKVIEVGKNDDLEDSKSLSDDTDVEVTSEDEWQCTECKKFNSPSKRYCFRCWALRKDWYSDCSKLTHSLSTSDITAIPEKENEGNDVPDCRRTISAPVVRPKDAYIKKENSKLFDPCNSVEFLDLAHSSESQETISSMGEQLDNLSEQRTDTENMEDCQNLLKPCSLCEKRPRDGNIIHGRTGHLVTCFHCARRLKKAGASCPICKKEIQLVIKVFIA
Protocol: g. Immunoprecipitation Experiments
Five million TC32 cells were treated with either 10 μM RG7388 or vehicle control for 4 h. Cells were lysed in buffer A (150 mM NaCl, 50 mM Tris, and 0.5% NP-40, pH 7.4) and combined with anti-MDM4 antibody (A300-287A; Bethyl Laboratories) in the presence of 20 μM RG7388, ATSP-7041, or vehicle control in a total volume of 1 ml, rotating at 4° C. for 16 h. Subsequently, 50 μl washed Protein AG beads (sc-2003; Santa Cruz) were added and the mixture was incubated for 1 h rotating at 4° C. Beads were washed three times in buffer A, and protein complexes were eluted by boiling in NuPage® LDS Sample Buffer (NP0007; Invitrogen) supplemented with DTT. Samples were analyzed by Western blot with antibodies against p53 DO-1 (sc-126; Santa Cruz) and MDM4 (A300-287A; Bethyl Laboratories).

[8] = TP53 wild-type Ewing sarcoma cell lines, micromolar concentrations

Q: `Cc1ncc(Cl)cc1NCc1ccc(C(=O)N[C@@H](CC2CCCC2)C(=O)NC2CC2)s1` [GSK2830371, 5-[[(5-Chloro-2-methyl-3-pyridinyl)amino]methyl]-N-[(1S)-1-(cyclopentylmethyl)-2-(cycloprpylamino)-2-oxoethyl]-2-thiophenecarboxamide] was tested. Which “cell death measured by Annexin V staining” value [1] did it give?
A: triggers cell death; also recorded: GSK2830371-induced cell death

Q: And the “cell viability, normalized to vehicle control” value (from here on “cell viability, normalized”) [2, 8]?
A: reduce viability; also recorded: notable increase in susceptibility

Q: And the “phosphorylation of Serine 15 of p53 (pSer15-p53)” value ([3]; single agent)?
A: increased pSer15-p53; also recorded: triggered a surge in phosphorylation of Serine 15 of p53

Q: What about the Wip1 protein levels ([3]; time-dependent) of the same compound?
A: decreased protein levels of Wip1; also recorded: reduced the protein levels of Wip1

Q: And the “effect of TP53 knockout on the cytotoxic effect of the compound (viability)” value (“effect of TP53 knockout” for short) [4]?
A: less effective

Q: `C[C@H](CC(=O)N1CCC(O)(Cn2cnc3cc(NC(=O)CCN4CCN(C)CC4)ccc3c2=O)CC1)c1ccccc1` [XL-188, (R)—N-(3-((4-hydroxy-1-(3-phenylbutanoyl)piperidin-4-yl)methyl)-4-oxo-3,4-dihydroquinazolin-7-yl)-3-(4-methylpiperazin-1-yl) propanamide] was tested. Which “cell viability, normalized” value ([2]; TC32 cells) did it give?
A: especially robust effect

Q: And the “cell viability, normalized” value [2, 8]?
A: reduced viability predominantly in TP53 wild-type Ewing sarcoma cell lines

Q: What about the “effect of TP53 knockout” value [4] of the same compound?
A: completely reversed the cytotoxic effect

Q: For `CC(=O)c1cc([N+](=O)[O-])c(Sc2cccc(Cl)c2Cl)s1` [P5091], which “cell death measured by Annexin V staining” value [1] is on record?
A: triggers cell death; also recorded: P5091-induced cell death

Q: And the “cell viability, normalized” value [2, 8]?
A: reduce viability; also recorded: relatively more cytotoxic

Q: What about the “effect of TP53 knockout” value [4] of the same compound?
A: did not rescue

Q: What about the “MDM2 protein levels, combination of ATSP-7041 and P5091 compared with ATSP-7041 alone” value [5] of the same compound?
A: decreased MDM2 protein levels; also recorded: decreased the level of MDM2 protein

Q: What about the “MDM2 protein levels, combination of ATSP-7041 and P5091 compared with ATSP-7041 alone” value ([5]; listed as P0951) of the same compound?
A: suppresses the feedback up-regulation of MDM2

Q: What about the “p53 and p21 protein levels” value ([5]; TP53 wild-type cells TC32 and TC138, Western blot) of the same compound?
A: increase in p53 and p21 protein levels; also recorded: increased p53 and p21 protein levels in a time-dependent fashion

Q: How did the MDM2 protein levels [6] turn out when `COc1cc(C(=O)O)ccc1NC(=O)[C@@H]1N[C@@H](CC(C)(C)C)[C@](C#N)(c2ccc(Cl)cc2F)[C@H]1c1cccc(Cl)c1F` [RG7388] was run?
A: no response; also recorded: no increase in MDM2 protein

Q: What about the MDM2 protein levels ([5]; TP53 wild-type cell lines TC32 and TC138, 1 μM, 4 h) of the same compound?
A: increase in MDM2 protein levels

Q: What about the “disruption of p53-MDM4 complex (MDM4 immunoprecipitation)” value [7] of the same compound?
A: does not interrupt binding; also recorded: unable to dissociate
